US9309242B2, “Substituted pyrido[2,3-b]pyrazines as FGFR kinase inhibitors” (priority 2011, dated 2016)
Read-outs that look alike come from different tables or passages of the source.

Assays:
[1] = test system: Ba/F3-FGFR1-transfected cells; assay: Ba/F3-FGFR1 (plus IL3) cellular proliferation assay, counterscreen with 10 ng/ml murine IL3; format: cell-based; details: plus IL3 (10 ng/ml murine IL3, counterscreen); read-out: BAF3-FGFR1 (PLUS IL3) pIC50 (converted)
Outline: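 Ba/F3-FGFR1 cells (20000/well) in RPMI-1640 with 10% FBS exposed to compound for 24 h at 37° C., 5% CO2, then Alamar Blue (resazurin) added for 4 h; fluorescence read at ex 540/em 590 nm. Counterscreen run identically with 10 ng/ml murine IL3.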

FGFR2 (h) = FGFR2 (h) (Homo sapiens, UniProt P21802); assay: FGFR2 (enzymatic assay), TR-FRET; format: biochemical; details: enzymatic assay, read-out: FGFR 2 pIC50 (converted)
Sequence of FGFR2 (h) (P21802 22-821): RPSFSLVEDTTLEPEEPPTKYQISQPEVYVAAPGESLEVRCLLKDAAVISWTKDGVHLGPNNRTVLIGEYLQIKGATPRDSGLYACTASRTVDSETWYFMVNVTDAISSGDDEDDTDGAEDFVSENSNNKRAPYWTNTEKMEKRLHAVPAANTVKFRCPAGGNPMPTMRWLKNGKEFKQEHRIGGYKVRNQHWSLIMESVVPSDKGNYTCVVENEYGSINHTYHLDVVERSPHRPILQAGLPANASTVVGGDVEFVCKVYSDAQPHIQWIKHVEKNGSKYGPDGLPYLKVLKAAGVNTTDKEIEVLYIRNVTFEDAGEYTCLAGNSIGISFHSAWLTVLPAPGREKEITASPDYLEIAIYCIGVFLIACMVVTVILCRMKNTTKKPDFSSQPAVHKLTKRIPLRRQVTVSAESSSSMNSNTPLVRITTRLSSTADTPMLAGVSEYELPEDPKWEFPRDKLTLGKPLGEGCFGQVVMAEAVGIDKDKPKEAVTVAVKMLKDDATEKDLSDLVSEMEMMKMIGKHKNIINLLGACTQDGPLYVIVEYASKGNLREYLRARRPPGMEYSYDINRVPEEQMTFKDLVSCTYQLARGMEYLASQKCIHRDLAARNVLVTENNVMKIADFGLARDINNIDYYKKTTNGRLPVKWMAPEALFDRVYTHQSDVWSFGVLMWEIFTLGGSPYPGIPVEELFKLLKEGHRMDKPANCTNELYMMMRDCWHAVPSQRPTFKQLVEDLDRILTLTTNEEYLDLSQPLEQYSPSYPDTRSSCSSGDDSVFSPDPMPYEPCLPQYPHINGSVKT
Outline: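 Human FGFR2 (150 ng/ml) was incubated with 500 nM Btn-Flt3 substrate and 0.4 μM ATP in 50 mM HEPES pH 7.5, 6 mM MnCl2, 1 mM DTT, 0.1 mM Na3VO4, 0.01% Triton-X-100. Compound was present at 1% DMSO final.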

[2] = biological target: T1, Ba/F3-FGFR1-transfected cells (Homo sapiens, UniProt P11362); assay: Ba/F3-FGFR1 (minus IL3) cellular proliferation assay, Alamar Blue; format: cell-based
T1 construct: BAF3-FGFR1 (MIN IL3) pIC50; other: minus IL3
T1 sequence (P11362 whole entry, change not shown): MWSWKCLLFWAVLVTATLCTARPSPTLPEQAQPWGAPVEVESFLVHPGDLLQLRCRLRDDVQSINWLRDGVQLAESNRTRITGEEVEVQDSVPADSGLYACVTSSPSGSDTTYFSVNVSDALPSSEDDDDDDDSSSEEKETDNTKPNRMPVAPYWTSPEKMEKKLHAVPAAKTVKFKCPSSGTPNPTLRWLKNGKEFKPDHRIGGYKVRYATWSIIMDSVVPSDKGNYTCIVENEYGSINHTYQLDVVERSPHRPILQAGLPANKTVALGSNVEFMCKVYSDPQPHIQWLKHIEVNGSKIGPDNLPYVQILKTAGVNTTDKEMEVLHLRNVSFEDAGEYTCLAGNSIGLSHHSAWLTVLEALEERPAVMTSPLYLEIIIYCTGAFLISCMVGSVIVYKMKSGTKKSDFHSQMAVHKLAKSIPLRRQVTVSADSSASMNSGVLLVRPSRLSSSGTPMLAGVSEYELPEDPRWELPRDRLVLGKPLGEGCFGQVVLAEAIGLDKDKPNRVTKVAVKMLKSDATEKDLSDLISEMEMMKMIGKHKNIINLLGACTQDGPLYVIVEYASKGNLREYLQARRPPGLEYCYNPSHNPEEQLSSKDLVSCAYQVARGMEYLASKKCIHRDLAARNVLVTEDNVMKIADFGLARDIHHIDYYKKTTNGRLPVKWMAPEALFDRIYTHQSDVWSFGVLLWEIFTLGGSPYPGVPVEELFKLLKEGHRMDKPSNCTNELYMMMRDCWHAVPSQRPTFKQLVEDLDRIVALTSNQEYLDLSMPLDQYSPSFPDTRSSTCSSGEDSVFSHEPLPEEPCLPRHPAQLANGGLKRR
Outline: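 Ba/F3 cells transfected with FGFR1 (20000 cells/well) were plated onto compound in phenol red-free RPMI-1640 with 10% FBS, 2 mM L-glutamine and gentamycin, then kept 24 h at 37 °C, 5% CO2. Alamar Blue (resazurin) was added for 4 h and fluorescence read at ex 540/em 590 nm.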

[3] = biological target: T2, Ba/F3-KDR-transfected cells (Homo sapiens, UniProt P35968); assay: Ba/F3-KDR (minus IL3) cellular proliferation assay, Alamar Blue; format: cell-based
T2 construct: BAF3-KDR (MIN IL3) pIC50; other: minus IL3
T2 sequence (P35968 whole entry, change not shown): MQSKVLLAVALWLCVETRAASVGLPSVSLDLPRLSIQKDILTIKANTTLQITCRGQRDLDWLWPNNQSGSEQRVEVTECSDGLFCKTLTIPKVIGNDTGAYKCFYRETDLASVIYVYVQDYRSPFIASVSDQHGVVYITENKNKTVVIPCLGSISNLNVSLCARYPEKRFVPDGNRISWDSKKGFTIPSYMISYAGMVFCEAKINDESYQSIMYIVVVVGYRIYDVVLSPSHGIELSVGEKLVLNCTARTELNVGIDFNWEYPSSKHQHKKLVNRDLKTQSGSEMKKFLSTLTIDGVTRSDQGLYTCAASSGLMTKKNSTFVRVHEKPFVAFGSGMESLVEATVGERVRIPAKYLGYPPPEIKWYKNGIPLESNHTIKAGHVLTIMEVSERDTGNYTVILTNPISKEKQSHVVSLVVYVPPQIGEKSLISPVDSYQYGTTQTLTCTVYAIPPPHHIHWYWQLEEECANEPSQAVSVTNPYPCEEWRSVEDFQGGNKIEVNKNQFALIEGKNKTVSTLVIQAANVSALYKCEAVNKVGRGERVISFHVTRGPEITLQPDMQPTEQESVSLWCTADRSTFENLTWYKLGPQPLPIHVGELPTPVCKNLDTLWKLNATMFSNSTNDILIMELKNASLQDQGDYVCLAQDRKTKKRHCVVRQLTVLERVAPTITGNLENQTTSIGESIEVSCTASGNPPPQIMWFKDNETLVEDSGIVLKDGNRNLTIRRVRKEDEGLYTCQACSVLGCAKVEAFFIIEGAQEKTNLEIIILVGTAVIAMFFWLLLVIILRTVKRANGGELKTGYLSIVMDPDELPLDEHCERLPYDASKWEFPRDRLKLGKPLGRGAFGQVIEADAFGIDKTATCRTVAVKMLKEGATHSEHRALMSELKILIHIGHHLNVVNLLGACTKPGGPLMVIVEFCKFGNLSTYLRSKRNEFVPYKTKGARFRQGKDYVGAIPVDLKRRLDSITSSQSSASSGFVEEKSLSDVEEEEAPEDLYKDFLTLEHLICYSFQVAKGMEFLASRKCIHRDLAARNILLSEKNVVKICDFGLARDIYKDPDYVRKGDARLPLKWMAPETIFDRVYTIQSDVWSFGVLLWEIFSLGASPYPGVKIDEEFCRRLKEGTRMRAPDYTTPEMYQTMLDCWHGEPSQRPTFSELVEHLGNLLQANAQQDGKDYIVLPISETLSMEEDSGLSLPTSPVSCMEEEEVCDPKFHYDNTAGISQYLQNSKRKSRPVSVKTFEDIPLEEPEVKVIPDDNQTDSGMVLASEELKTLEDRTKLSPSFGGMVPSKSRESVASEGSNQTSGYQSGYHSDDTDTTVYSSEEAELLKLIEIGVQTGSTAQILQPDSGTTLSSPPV
Outline: (§1)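 Proliferation is measured as Alamar Blue relative fluorescence units following 24 h compound treatment of 20000 cells per well in 10% FBS medium. The IL3-supplemented run serves as a counterscreen under the same conditions.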

KDR (h) = KDR (h) (Homo sapiens, UniProt P35968); assay: KDR (VEGFR2) (enzymatic assay), TR-FRET; format: biochemical; details: read-out: VEGFR 2 (KDR) pIC50 (converted)
Sequence of KDR (h) (P35968 20-1356): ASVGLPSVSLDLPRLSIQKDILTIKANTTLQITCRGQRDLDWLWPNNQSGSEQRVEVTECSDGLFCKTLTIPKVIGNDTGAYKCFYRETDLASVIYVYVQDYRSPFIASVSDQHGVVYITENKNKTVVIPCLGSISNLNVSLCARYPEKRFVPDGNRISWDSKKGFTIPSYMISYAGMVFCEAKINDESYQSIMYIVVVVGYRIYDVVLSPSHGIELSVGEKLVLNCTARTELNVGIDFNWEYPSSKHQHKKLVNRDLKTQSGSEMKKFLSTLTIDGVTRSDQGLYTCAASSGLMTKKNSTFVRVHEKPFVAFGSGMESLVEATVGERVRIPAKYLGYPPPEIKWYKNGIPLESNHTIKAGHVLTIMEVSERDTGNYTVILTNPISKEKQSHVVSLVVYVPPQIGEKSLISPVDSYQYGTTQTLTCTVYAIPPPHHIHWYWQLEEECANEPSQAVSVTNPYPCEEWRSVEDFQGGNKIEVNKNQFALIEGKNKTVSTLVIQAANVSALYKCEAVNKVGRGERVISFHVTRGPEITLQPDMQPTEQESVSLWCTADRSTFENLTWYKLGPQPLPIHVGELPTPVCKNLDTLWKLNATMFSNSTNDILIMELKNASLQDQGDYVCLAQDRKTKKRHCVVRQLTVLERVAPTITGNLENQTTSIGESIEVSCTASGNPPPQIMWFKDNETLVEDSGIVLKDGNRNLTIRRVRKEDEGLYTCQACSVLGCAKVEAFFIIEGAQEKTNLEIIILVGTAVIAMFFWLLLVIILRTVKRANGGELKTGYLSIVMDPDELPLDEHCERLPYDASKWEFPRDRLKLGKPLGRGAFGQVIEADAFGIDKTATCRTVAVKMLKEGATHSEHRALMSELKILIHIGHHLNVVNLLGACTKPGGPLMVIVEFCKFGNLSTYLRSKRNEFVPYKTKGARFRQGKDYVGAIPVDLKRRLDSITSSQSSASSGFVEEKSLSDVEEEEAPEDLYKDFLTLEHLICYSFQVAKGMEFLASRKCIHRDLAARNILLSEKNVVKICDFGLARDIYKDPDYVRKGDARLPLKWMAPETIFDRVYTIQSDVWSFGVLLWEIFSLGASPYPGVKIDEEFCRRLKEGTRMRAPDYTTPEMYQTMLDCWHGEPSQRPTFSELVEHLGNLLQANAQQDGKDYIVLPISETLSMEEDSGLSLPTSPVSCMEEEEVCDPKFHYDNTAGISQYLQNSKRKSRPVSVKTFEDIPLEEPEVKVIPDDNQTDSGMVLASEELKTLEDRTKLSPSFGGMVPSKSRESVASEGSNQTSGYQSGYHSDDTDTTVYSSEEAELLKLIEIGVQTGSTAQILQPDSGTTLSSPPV
Outline: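 First, kinase (150 ng/ml), Btn-Flt3 (500 nM), ATP (3 μM) and compound (1% DMSO) react 120 min at RT in pH 7.5 HEPES/6 mM MnCl2. Next, EDTA with Eu-anti-P-Tyr and SA-XL-665 stops it for 60 min. Finally, TR-FRET is read as RFU.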

FGFR4 (h) = FGFR4 (h) (Homo sapiens, UniProt P22455); assay: FGFR4 (enzymatic assay), TR-FRET; format: biochemical; details: FGFR 4 pIC50, enzymatic assay
[4] = test system: Ba/F3-KDR-transfected cells; assay: Ba/F3-KDR (plus IL3) cellular proliferation assay, counterscreen with 10 ng/ml murine IL3; format: cell-based; details: plus IL3 (10 ng/ml murine IL3, counterscreen); read-out: BAF3-KDR (PLUS IL3) pIC50 (converted)
Outline: as §1

FGFR1 (h) = FGFR1 (h) (Homo sapiens, UniProt P11362); assay: FGFR1 (enzymatic assay), TR-FRET; format: biochemical; details: read-out: FGFR 1 pIC50 (converted)
Sequence of FGFR1 (h) (P11362 22-822): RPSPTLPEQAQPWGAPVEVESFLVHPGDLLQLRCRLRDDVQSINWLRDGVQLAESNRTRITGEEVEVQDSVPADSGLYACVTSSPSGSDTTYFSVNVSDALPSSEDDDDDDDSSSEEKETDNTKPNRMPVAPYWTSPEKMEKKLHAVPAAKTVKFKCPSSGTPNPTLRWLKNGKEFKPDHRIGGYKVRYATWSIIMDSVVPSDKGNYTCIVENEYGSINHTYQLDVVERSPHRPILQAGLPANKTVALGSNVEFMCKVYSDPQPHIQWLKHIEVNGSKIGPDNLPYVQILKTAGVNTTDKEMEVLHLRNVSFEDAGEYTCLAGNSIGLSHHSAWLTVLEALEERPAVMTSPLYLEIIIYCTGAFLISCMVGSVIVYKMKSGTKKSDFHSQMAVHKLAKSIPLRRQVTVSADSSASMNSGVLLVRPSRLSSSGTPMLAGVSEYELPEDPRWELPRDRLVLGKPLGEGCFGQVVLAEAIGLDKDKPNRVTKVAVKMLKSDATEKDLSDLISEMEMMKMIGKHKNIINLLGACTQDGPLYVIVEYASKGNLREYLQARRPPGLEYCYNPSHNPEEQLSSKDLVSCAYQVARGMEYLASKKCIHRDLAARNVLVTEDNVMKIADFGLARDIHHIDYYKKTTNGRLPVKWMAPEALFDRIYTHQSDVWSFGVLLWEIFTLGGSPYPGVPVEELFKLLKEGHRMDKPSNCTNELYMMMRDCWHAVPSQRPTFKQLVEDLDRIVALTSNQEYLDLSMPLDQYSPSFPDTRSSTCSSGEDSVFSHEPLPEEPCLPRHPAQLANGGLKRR

[5] = biological target: T3, Ba/F3-FGFR3-transfected cells (Homo sapiens, UniProt P22607); assay: Ba/F3-FGFR3 (minus IL3) cellular proliferation assay, Alamar Blue; format: cell-based
T3 construct: BAF3-FGFR3 (MIN IL3) pIC50; other: minus IL3
Outline: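 Ba/F3 cells transfected with FGFR3 were seeded at 20000 cells/well in phenol red-free RPMI-1640 with 10% FBS over compound in DMSO and kept 24 hours at 37° C, 5% CO2. Alamar Blue (resazurin) was then added for 4 hours and fluorescence read at ex 540/em 590 nm. The counterscreen repeated this with 10 ng/ml murine IL3.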

FGFR3 (h) = FGFR3 (h) (Homo sapiens, UniProt P22607); assay: FGFR3 (enzymatic assay), TR-FRET; format: biochemical; details: read-out: FGFR 3 pIC50 (converted)
Text: Time-Resolved Fluorescence Resonance Energy Transfer (TR-FRET) signal (ex340 nm.

[6] = average values if tested multiple times

Compound | IC50 [1] [µM] | IC50 (FGFR2 (h); [6]) [nM] | BAF3-FGFR1 (MIN IL3) pIC50 [2] | BAF3-KDR (MIN IL3) pIC50 [3] | IC50 (KDR (h); [6]) [nM] | IC50 (FGFR4 (h); [6]) [nM] | IC50 [4] [µM] | IC50 (FGFR1 (h); [6]) [nM] | BAF3-FGFR3 (MIN IL3) pIC50 [5] | IC50 (FGFR3 (h); [6]) [nM] | IC50 (FGFR2 (h)) [nM] | IC50 (KDR (h)) [nM] | IC50 (FGFR4 (h)) [nM] | IC50 (FGFR1 (h)) [nM] | IC50 (FGFR3 (h)) [nM]
COc1cc(OC)c(Cl)c(N(Cc2ncc[nH]2)c2ccc3ncc(-c4cnn(C)c4)nc3n2)c1Cl [Compound 98] | > 10 | 4.37 | 7.72 | 6.19 | 16.6 | 7.76 | > 10 | ~3.89 | 7.65 | 2.69 | – | – | – | – | –
COc1cc(OC)c(F)c(N(Cc2ncc[nH]2)c2ccc3ncc(-c4cnn(Cc5ncc[nH]5)c4)nc3n2)c1 [Compound 100] | > 10 | 2.14 | 8.02 | 5.41 | 8.13 | 1.29 | > 10 | 1.29 | 7.56 | 1.29 | – | – | – | – | –
COc1cc(O)cc(N(Cc2ncc[nH]2)c2ccc3ncc(-c4cnn(C)c4)nc3n2)c1 [Compound 103] | > 8.51 | 0.741 | 8.31 | 6.40 | 5.37 | 0.741 | > 10 | 0.339 | ~8.00 | 0.417 | – | – | – | – | –
COc1cc(OC)c(F)c(N(Cc2nc3c([nH]2)CCNC3)c2ccc3ncc(-c4cnn(C)c4)nc3n2)c1 [Compound 104] | > 10 | 3.24 | 6.70 | 5.10 | 26.3 | 3.47 | > 10 | 2.57 | ~6.01 | 3.09 | – | – | – | – | –
CNCCN(c1ccc2ncc(-c3cn[nH]c3)nc2n1)c1c(F)c(OC)cc(OC)c1F [Compound 106] | > 10 | 2.14 | 7.86 | 5.59 | 25.1 | 4.68 | > 10 | 1.86 | ~7.12 | 1.48 | – | – | – | – | –
COc1cc(OC)c(F)c(N(Cc2nc[nH]c2C)c2ccc3ncc(-c4cnn(C)c4)nc3n2)c1 [Compound 109] | > 10 | 2.29 | 7.85 | ~6.01 | 20 | 2.69 | > 10 | 1.15 | ~7.65 | 1.45 | – | – | – | – | –
COc1cc(OC)c(F)c(N(Cc2ccnn2C)c2ccc3ncc(-c4cnn(C)c4)nc3n2)c1 [Compound 113] | > 10 | 2.19 | 7.19 | 5.33 | 51.3 | 3.31 | > 10 | 2 | 6.72 | 1.38 | – | – | – | – | –
COc1cc(/N=c2\ccc3ncc(-c4cnn(C)c4)nc3n2Cc2ccnn2C)c(F)c(OC)c1 [Compound 114] | > 10 | 1.62 | 7.63 | ~7.05 | 4.9 | 0.891 | > 10 | 0.933 | ~7.66 | 0.724 | – | – | – | – | –
COc1cc(/N=c2\ccc3ncc(-c4cnn(C)c4)nc3n2Cc2cc[nH]n2)c(F)c(OC)c1 [Compound 115] | > 10 | 1.58 | ~8.17 | 6.58 | 5.89 | 0.933 | > 10 | 0.708 | 7.82 | 0.851 | – | – | – | – | –
COc1cc(OC)c(F)c(N(Cc2cc[nH]n2)c2ccc3ncc(-c4cnn(C)c4)nc3n2)c1 [Compound 118] | > 10 | 1.32 | 8.00 | 6.60 | 6.46 | 0.776 | > 10 | 0.759 | ~8.04 | 0.589 | – | – | – | – | –
COc1cc(/N=c2\ccc3ncc(-c4cnn(C)c4)nc3n2CCCN2CCCC2=O)c(F)c(OC)c1 [Compound 119] | > 3.98 | – | ~7.92 | ~6.52 | – | – | > 3.98 | – | ~8.07 | – | 1.86 | 6.17 | 1 | 1.41 | 0.708
COc1cc(OC)c(F)c(N(CCCN2CCCC2=O)c2ccc3ncc(-c4cnn(C)c4)nc3n2)c1 [Compound 120] | > 10 | – | 7.27 | 6.10 | – | – | > 10 | – | 7.16 | – | 3.02 | 19.1 | 3.24 | 4.17 | 1.86
CNCCN(c1ccc2ncc(-c3cnn(C)c3)nc2n1)c1c(F)c(O)cc(OC)c1F [Compound 122] | > 10 | – | 6.74 | <5 | – | – | > 10 | – | 6.09 | – | 3.31 | 50.1 | 9.55 | 2.82 | 2.51
COc1cc(/N=c2\ccc3ncc(-c4cnn(C)c4)nc3n2CC2COC(=O)N2)c(F)c(OC)c1 (stereo not drawn) [Compound 123] | > 10 | – | 7.21 | 5.53 | – | – | > 10 | – | 7.16 | – | 1.26 | 21.9 | 2.75 | 1.35 | 0.741
COc1cc(OC)c(F)c(N(CC2COC(=O)N2)c2ccc3ncc(-c4cnn(C)c4)nc3n2)c1 (stereo not drawn) [Compound 124] | > 10 | – | ~7.16 | 5.49 | – | – | > 10 | – | ~7.16 | – | 2.75 | 60.3 | 4.27 | 3.09 | 1.55
COc1cc(OC)c(F)c(N(Cc2cn[nH]c2)c2ccc3ncc(-c4cnn(C)c4)nc3n2)c1 [Compound 125] | > 10 | – | 7.61 | 6.21 | – | – | > 10 | – | ~7.57 | – | 0.794 | 8.71 | 1.58 | 0.851 | 0.724
COc1cc(OC)c(F)c(N(Cc2ccn(C)n2)c2ccc3ncc(-c4cnn(C)c4)nc3n2)c1 [Compound 128] | > 10 | – | 8.10 | 6.34 | – | – | > 10 | – | 8.03 | – | 1.55 | 7.94 | 1.29 | 1.32 | 1.05
COc1cc(OC)cc(N(CC2CCCCO2)c2ccc3ncc(-c4cnn(C)c4)nc3n2)c1 (stereo not drawn) [Compound 129] | > 10 | – | ~7.15 | 5.33 | – | – | > 10 | – | ~7.15 | – | 2.4 | 58.9 | 7.76 | 3.47 | 2.69
